Source: patent US7408022B2, “Composition and method for increasing apoptosis in cancer cells” (Celtek Bioscience, LLC, priority 2004, dated 2008)
Peptide text beside a SMILES is read from it.

Columns and labels:
DU145 cells [1] = experiment: TUNEL assay; format: cell-based, Human; conditions: peptide 30 min, then cisplatin 5 μg/ml 16 h; CB5003 40 μM, CB5002 72 μM, CB5007 30 μM
Method: DU145 cells were grown on 8-well chamber slides to a confluence of 70-80%. The cells were then incubated with different concentrations of peptides or diluent for 30 min at 37° C. followed by the treatment with cisplatin (5 μg/ml) or diluent for an additional 16 h. The cells were air-dried and fixed in 4% paraformaldehyde at room temperature for 1 h. The cells were then washed with PBS and permeabilized with permeabilization solution (0.1% Triton X-100 in 0.1% sodium citrate) for 2 min on ice. Apoptosis was detected using TUNEL method “in situ cell death detection POD” according to the manufacturer's instructions (Roche, Indianapolis, Ind.). The fluorescein-labeled DNA strand breaks due to apoptosis were visualized under light microscope (Microstar IV, Reichard, Buffalo, N.Y.) by using anti-fluorescein antibody conjugated POD (peroxidase) at ×40 magnification. The images were analyzed using a Pixera digital camera.

[2] = test system: NF-κB nuclear translocation in DU145 cells; experiment: Western blot analysis of NF-κB p50 protein in nuclear extracts; format: cell-based, Human; conditions: CB5005 30 μM, CB5003 90 μM, CB5007 30 μM for 30 min, then TNF-α 10 ng/ml 1 h
Method: (§1) PCA cells were grown on 60-mm dishes to a confluence of 70-80%. The cells were incubated with different concentrations of peptides for 30 min at 37° C., followed by treatment with TNF-α (10 ng/ml) for an additional 1 h at 37° C., as indicated, or incubated with peptide alone for 16 hours. After the treatment, cells were washed with ice-cold PBS and lysed in 500 μl of buffer A (10 mM HEPES, pH 7.9, 10 mM KCl, 0.1 mM EDTA, 0.1 mM EGTA, 0.4% Nonidet P-40, 1 mM DTT, 0.5 mM PMSF and 1 μg/ml each of leupeptin, aprotinin, pepstatin, chymostatin and antipain) on ice for 10 min. Nuclei were pelleted by centrifugation at high speed and washed with 500 μl of buffer A. Nuclei were then resuspended in 40 μl of buffer B (20 mM HEPES, pH 7.9, 400 mM NaCl, 1 mM EDTA, 1 mM EGTA, 1 mM DTT, 1 mM PMSF and 1 μg/ml each of leupeptin, aprotinin, pepstatin, chymostatin and antipain). The protein concentration of nuclear extract was determined using Pierce BCA protein assay and equalized among samples using buffer B.
(§2) Equal amounts of proteins were heat-treated in 2×SDS sample loading buffer at 100° C. for 5 minutes and fractionated by 10% SDS polyacrylamide electrophoresis. The proteins were transferred to nitrocellulose paper. After blocking with 5% nonfat milk in TBS (10 mM Tris-HCl, pH 7.6, 70 mM NaCl and 0.05% Tween 20) for 30 minutes, nuclear NFκB p50 was detected by using an anti-p50 IgG antibody (1:5000), (Upstate, Lake Placid, N.Y.). The primary antibody was visualized with horseradish peroxidase-coupled secondary antibody by using ECL western blotting system as described in manufacturer's protocol (Pierce, Rockford, Ill.).

[3] = test system: NF-κB nuclear translocation in LNCaP cells; experiment: as above; format: cell-based, Human; conditions: peptide 30 min, then TNF-α 10 ng/ml 1 h
Method: as §1, §2

neuroblastoma N2a cells = experiment: In vitro cytotoxicity assay (MTS); format: cell-based; conditions: 24 h at 37° C.
Method: (§3) LNCaP, DU145, PC3, or neuroblastoma N2a cells were grown in 96-well plates to a confluence of 60%. The treatments with different concentrations of peptide were performs in quadruplicates in a total volume of 100 μl in RPMI without serum for 24 h at 37° C. The cells were then washed and incubated at 37° C. with 100 μl phenol-red free RPMI containing 20 μl of the CellTiter 96 AQueous Solution reagent (Promega, Madison, Wis.) for 1 h. The absorbency in each well was recorded at 490 nm using a Microplate Autoreader EL 309 (Bio-Tek Instruments, Winooski, Vt.). The absorbency reflects directly the number of viable cells. Blanks were subtracted from all data. The data were then analyzed using Prism software (GraphPad Software Inc., San Diego, Calif.) and expressed as a mean ±SE of three independent experiments. Statistical significance was performed by one way ANOVA and consider significant if p<0.05.

[4] = Quantitative indirect immunofluorescence assay of peptide cellular import (96-well plates); format: cell-based; conditions: from time-dependent fluorescence accumulation, 1-20 h
From the text: This indirect immunofluoresence assay was also utilized to quantitate peptide cellular import. Briefly, cells grown in 96-well plates will be treated with peptides for different time periods, and then subjected to an indirect immunofluorescence assay using anti-peptide antibody and FITC-labeled anti-rabbit antibody as described above. Cells were then lysed with 10% SDS and the fluorescence in the soluble cell solutions was quantified by a Cytofluor™ 2300 reader (Millipore) at 485/560 nm. The fluorescence readings were calculated by subtracting […] of peptide-untreated sample. The data were expressed as mean ±SEM of three independent experiments performed in quintuplicate samples. The kinetics of imported CB5005 peptide (SEQ ID NO: 4) was studied by using this quantitative.

DU145 cells [5] = experiment: In vitro cytotoxicity assay (MTS); format: cell-based, Human; conditions: DU145, 30 μM, 24 h
Method: as §3

PC3 cells = experiment: In vitro cytotoxicity assay (MTS); format: cell-based, Human; conditions: PC3, 30 μM, 24 h
Method: as §3

LNCaP cells = experiment: In vitro cytotoxicity assay (MTS); format: cell-based, Human; conditions: 24 h at 37° C.
Method: as §3

DU145 cells [6] = experiment: Flow cytometric analysis of annexin V/PI stained cells; format: cell-based, Human; conditions: for induction of apoptosis by co-treatment with cisplatin (flow cytometry): CB5005 30 μM, CB5003 72 μM, CB5002 72 μM, cisplatin 5 μg/ml
Method: PCA cells were grown on 60-mm dishes to a confluence of 50-60%. These cells were incubated with different concentrations of peptides for 30 min at 37° C. followed by the treatment with TNF-α (10 ng/ml), cisplatin (2-30 μg/ml), etoposide (2-20 μg/ml) or diluent for an additional 21 h at 37° C. Phosphatidylserine exposure on apoptotic cells was measured by their ability to bind Annexin V. Specifically, cells were harvested by trypsinization. The trypsinized cells, media and PBS washes were combined and cells collected by centrifugation. […] Stained cells were analyzed by flow cytometry. A minimum 20,000 events for each sample was measured.

DU145 cells [7] = experiment: Indirect immunofluorescence assay for peptide cellular import; format: cell-based, Human; conditions: different concentrations of peptides, 1 h at 37° C.
Method: DU145 cells were grown on 8-well chamber slides (Nunc, Naperville, Ill.) to a confluence of 80%. These cells were then incubated with diluent or different concentrations of peptides in RPMI without serum for 1 h at 37° C. The cells were washed three times with cold PBS to remove the extracellular peptides and then fixed with 3.5% paraformaldehyde solution in PBS at 4° C. for 20 min. The fixed cells were washed three times with cold PBS and treated with 0.25% Triton X-100 for 10 min. The washed cells were then incubated with anti-peptide IgG in PBS for 1 h. After three 5 min washings with PBS, the intracellular peptides (via peptide-antibody complexes) were subsequently detected with FITC-labeled goat anti-rabbit IgG (Pierce, Rockford, Ill.) after 1 h incubation. Cover slips with stained cells were mounted in Poly/Mount (Polysciences, Warrington, Pa.) and analyzed with Microstar IV (Reichard, Buffalo, N.Y.) using a 100× oil immersion lens. The color images were analyzed using a Pixera digital camera and stored in JPG format. The same assay was also utilized for determining peptide cellular import in other cell lines, including PC3, LNCaP, and neuroblastoma N2a cells.

DU145 cells [8] = experiment: Annexin V/PI fluorescence microscopy apoptosis assay; format: cell-based, Human; conditions: cisplatin 5 μg/ml alone, 5 h
Method: DU145 cells were grown on 4-well chamber slides to a confluence of 70-80%. Cells were then treated with CB5005 peptide (SEQ ID NO: 4) (30 μM) or diluent for 30 min at 37° C. followed by cisplatin (5 μg/ml) for an additional 5 h. […] The chamber slides were mounted in Poly/mount (Polysciences, Warrington, Pa.) and analyzed with a fluorescence microscope (Microstar IV, Reichard, Buffalo, N.Y.) using ×100 oil immersion lens. The color images were analyzed by a Pixera digital camera and stored in JPG format.

| Compound | sensitizing activity to cisplatin-induced apoptosis (TUNEL) (DU145 cells [1]) | TNF-α-induced NF-κB nuclear translocation [2] | TNF-α-induced NF-κB nuclear translocation [3] | induction of apoptosis by co-treatment with cisplatin (flow cytometry) (DU145 cells [6]; 21 h) | cellular import activity (DU145 cells [7]) | also measured |
| --- | --- | --- | --- | --- | --- | --- |
| CB5007: control peptide corresponding to CB5005 except that two basic residues in the NF-kB p50 NLS are mutated (KR-NG) (KLKLALALALAVQRNGQKLMP) | not | did not have an inhibitory effect | did not have an inhibitory effect | – | – | – |
| CSCC[C@H](NC(=O)[C@H](CC(C)C)NC(=O)[C@H](CCCCN)NC(=O)[C@H](CCC(N)=O)NC(=O)[C@H](CCCNC(=N)N)NC(=O)[C@H](CCCCN)NC(=O)[C@H](CCCNC(=N)N)NC(=O)[C@H](CCC(N)=O)NC(=O)[C@@H](NC(=O)[C@H](C)NC(=O)[C@H](CC(C)C)NC(=O)[C@H](C)NC(=O)[C@H](CC(C)C)NC(=O)[C@H](C)NC(=O)[C@H](CC(C)C)NC(=O)[C@H](C)NC(=O)[C@H](CC(C)C)NC(=O)[C@H](CCCCN)NC(=O)[C@H](CC(C)C)NC(=O)[C@@H](N)CCCCN)C(C)C)C(=O)N1CCC[C@H]1C(=O)O [CB5005] (H-KLKLALALALAVQRKRQKLMP-OH; N-terminus and C-terminus assumed) | – | – | – | – | – | cytotoxicity (MTS) (neuroblastoma N2a cells): did not result in toxicity; stability in intracellular compartments [4]: relatively stability; cytotoxicity (MTS), peptide-untreated vs treated samples (DU145 cells [5]): Statistical significance (p<0.05); cytotoxicity (MTS), peptide-untreated vs treated samples (PC3 cells): Statistical significance (p<0.05); cytotoxicity (MTS) (LNCaP cells): not toxic |
| CB5002: control peptide with a mutant, non-functional CPS located N-terminal to the NLS (LALLAPVQRKRQKLMP) | not | – | – | did not show significant effect | not active | – |
| N.N.[Cl][Pt][Cl] [cisplatin, reference compound] | – | – | – | – | – | induction of apoptosis (flow cytometry) (DU145 cells [6]; cisplatin 5 μg/ml alone, 21 h): ineffective; induction of apoptosis (annexin V-FITC staining) (DU145 cells [8]): ineffective |
| CB5003: analogous peptide possessing only a portion of the CPS (SEQ ID NO: 1) N-terminal to the NF-κB p50 NLS (LALALAVQRKRQKLMP) | active, although at a much lower level | inhibited | inhibited | active but to a much less extent | much weaker import activity | synergistic activity in enhancing the apoptosis induced by cisplatin (dependence on concentration) (DU145 cells [6]; DU145, flow cytometry): concentration-dependent |
